Experimental data from patent US20040186166A1, “Cannabinoid analogs as peroxisome proliferator activated nuclear receptor gamma activators” (priority 2002, published 2004).

Key:
COX-2 = molecular target: T1, COX-2 (Homo sapiens, UniProt P35354); settings: Zurier et al. 1998; cited from earlier work
T1 sequence (P35354 18-604): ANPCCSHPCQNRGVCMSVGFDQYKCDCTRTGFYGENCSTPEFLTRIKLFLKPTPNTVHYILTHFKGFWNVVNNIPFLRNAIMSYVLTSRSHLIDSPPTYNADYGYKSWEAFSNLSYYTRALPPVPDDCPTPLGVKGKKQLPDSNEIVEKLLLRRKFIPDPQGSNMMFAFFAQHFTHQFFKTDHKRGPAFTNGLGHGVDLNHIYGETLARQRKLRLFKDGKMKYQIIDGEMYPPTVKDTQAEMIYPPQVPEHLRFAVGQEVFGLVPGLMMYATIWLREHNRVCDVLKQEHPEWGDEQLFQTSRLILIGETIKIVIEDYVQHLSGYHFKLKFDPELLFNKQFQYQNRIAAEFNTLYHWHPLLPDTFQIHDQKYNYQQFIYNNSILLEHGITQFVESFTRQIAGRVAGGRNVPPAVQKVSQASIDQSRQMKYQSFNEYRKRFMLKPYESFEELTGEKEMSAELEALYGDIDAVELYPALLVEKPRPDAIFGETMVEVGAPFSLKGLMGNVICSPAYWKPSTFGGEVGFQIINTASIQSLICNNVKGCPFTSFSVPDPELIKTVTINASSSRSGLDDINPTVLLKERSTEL

[1] = IL-1β and TNFα injected into subcutaneous air pouches, mice; cited from earlier work
human IL-8 promoter = experiment: IL-8 promoter luciferase assay, HeLa cells with wild type PPARγ; assay type: cell-based
Procedure: For PPARγ activation assay, HEK293 cells were plated in 12-well cell culture plates and maintained in Dulbecco's modified Eagle's medium (DMEM) supplemented with 10% fetal bovine serum (FBS) at 37° C. under 5% CO2. Cells were changed to phenol red-free DMEM supplemented with 10% charcoal-stripped fetal bovine serum 3 hours before transfection by a standard calcium-phosphate precipitation method. Twelve hours after transfection, the cells were washed with phosphate-buffered saline (PBS) and fed again with fresh medium containing the indicated concentrations of compounds. After 36 hours, cells were harvested for β-galactosidase and luciferase activities as described previously (Li et al., Proc Natl Acad Sci USA 94:8479-84, 1997). The average normalized luciferase activity was determined via triplicate experiments. For IL-8 promoter assay, HeLa cells were maintained and transfected in the same way as described above. After transfection, cells were recovered for 4 hours before treatment with AJA, GW347845, or solvent. After 3-4 hours, cells were treated with or without 25 nM of phorbol myristate acetate (PMA) for 24 hours.
The IL-8 luciferase reporter controlled by the human IL-8 promoter (-97/-69) was cotransfected with mPPARγ or mPPARγ ΔAF2 mutant into HeLa cells. After transfection, cells were treated with AJA, GW347845 or solvent after PMA treatment for 24 hours. This was performed by determining the effect of AJA on IL-8 promoter activity and the role of PPARγ in this process. IL-8 is a biomarker for inflammation, and reduction of IL-8 levels correlates with a decrease in inflammation. The involvement of PPARγ in regulating IL-8 promoter activity was determined by comparing the IL-8 promoter activity in the presence of wild type PPARγ or its ΔAF2 mutant. In the experiment illustrated in FIG. 6A, PMA stimulated IL-8 promoter activity 3 fold, which was set as 100% promoter activity.

[2] = molecular target: T2, PPARγ / GST-DRIP205 (amino acids 527-970) (Mus musculus, UniProt P37238); experiment: GST pull-down assay, PPARγ with GST-DRIP205; assay type: binding; settings: 20 μM AJA
T2 construct: made in house; host or cells: PPARγ1: reticulocyte lysate; GST-DRIP205: E. coli BL21, kept on glutathione-Sepharose beads
Procedure: The glutathione S-transferase (GST)-DRIP205 (amino acid 527-970) and GST-RAC3 RID (amino acid 613-752) fusion proteins were expressed in BL21 cells by induction with 0.1 mM isopropyl-β-D-thiogalactopyranoside (IPTG) at room temperature for 4 hours. The bacterial pellet was resuspended in STE buffer (150 mM NaCl, 10 mM Tris pH 8.0, 1 mM EDTA), containing 5 mM dithiothreitol (DTT), 1 mM phenylmethlsulfonyl fluoride (PMSF) and 1.5% Sarkosyl. The cell suspension was sonicated and centrifuged at 7400 rpm at 4° C. for 30 minutes. The supernatant was isolated and 0.02% Triton-X 100 was added, and the mixture was then incubated with 1 ml 50% slurry of glutathione-Sepharose beads on a rotator at 4° C. for 30 minutes. The beads were spun down at 3000 rpm for 10 minutes, the supernatant was removed, and the beads were suspended in 1 ml cold PBS.
Approximately 5 μg of GST-DRIP205 or GST-RAC3 bound on glutathione-Sepharose beads and 4 μl ^35S-methionine-labeled mPPARγ1 were incubated with the indicated concentrations of AJA, GW347845, or vehicle alone in H buffer (20 mM Hepes [pH 7.7], 75 mM KCl, 0.1 mM EDTA, 2.5 mM MgCl2, 0.05% NP40, 0.1 mM methionine, 1 mM DTT) containing 1 mg/ml bovine serum albumin (BSA) on a rotator at 4° C. overnight. After three washes with cold PBS, the bound protein was eluted in SDS sample buffer and boiled for 10 min before SDS-PAGE and autoradiography. […]

[3] = cited from earlier work

T2 sequence (P37238 31-505): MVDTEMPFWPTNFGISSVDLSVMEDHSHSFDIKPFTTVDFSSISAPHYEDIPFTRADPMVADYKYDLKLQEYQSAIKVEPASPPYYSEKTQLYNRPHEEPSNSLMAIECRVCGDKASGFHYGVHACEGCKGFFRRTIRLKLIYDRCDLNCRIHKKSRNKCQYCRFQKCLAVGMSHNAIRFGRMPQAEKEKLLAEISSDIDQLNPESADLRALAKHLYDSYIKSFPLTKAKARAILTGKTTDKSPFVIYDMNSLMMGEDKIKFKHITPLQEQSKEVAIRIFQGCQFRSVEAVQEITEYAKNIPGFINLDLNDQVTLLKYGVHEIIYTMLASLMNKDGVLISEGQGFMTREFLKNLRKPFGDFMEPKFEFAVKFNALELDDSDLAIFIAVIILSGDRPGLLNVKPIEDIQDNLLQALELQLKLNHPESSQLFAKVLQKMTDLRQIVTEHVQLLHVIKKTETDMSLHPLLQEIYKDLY
T2 sequence (Q15648 527-970 partner limits assumed): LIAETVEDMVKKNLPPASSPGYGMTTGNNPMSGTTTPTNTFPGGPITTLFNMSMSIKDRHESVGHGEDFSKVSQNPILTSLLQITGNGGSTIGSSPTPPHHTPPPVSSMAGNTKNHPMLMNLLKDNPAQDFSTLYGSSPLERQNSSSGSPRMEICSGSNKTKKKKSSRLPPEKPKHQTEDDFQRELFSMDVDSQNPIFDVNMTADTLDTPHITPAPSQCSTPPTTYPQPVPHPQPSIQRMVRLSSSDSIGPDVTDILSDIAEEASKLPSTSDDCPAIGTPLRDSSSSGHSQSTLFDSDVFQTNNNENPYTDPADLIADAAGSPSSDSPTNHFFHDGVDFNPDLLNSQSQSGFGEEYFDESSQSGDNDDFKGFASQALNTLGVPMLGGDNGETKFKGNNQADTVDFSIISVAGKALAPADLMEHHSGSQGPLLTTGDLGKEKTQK

CCCCCCC(C)(C)c1cc(O)c2c(c1)OC(C)(C)[C@@H]1CC=C(C(=O)O)C[C@@H]21 [AJA, dimethylheptyl-THC-11-oic acid]
concentration range suppressing COX-2 activity (COX-2): 1 to 10 µM
acute inflammation [1]: suppress
reduction of PMA-stimulated IL-8 promoter activity (human IL-8 promoter; 20 μM, HeLa cells): about 40%
significance of the reduction of IL-8 promoter activity (human IL-8 promoter; 10 and 20 μM AJA): statistically significant
binding of PPARγ to GST-DRIP205 [2]: increased binding
drug dependence ([3]; in vivo): did not exhibit drug dependence
mutagenesis ([3]; in vivo): did not exhibit drug dependence or cause mutagenesis
ulcerogenicity ([3]; therapeutically relevant doses): totally non-ulcerogenic
